Source: ChEMBL document CHEMBL1122817, “Synthesis and biological activity of substituted [[3(S)-(acylamino)-2-oxo-1-azetidinyl]oxy]acetic acids. A new class of heteroatom-activated beta-lactam antibiotics” (1985)

What was measured:
Escherichia coli [1] = assay: Inhibitory activity against Escherichia coli X580 at 10 mg/mL concentration using Agar disk plate assay; assay type: functional
Micrococcus luteus [2] = assay: Inhibitory activity against Sarcina lutea X186 at 10 mg/mL concentration using Agar disk plate assay; assay type: functional
Bacillus subtilis [3] = assay: Inhibitory activity against Bacillus Subtilis X12 at 10 mg/mL concentration using Agar disk plate assay; assay type: functional
Staphylococcus aureus [4] = assay: Inhibitory activity against Staphylococcus aureus X1 at 10 mg/mL concentration using Agar disk plate assay; assay type: functional
Proteus vulgaris [5] = assay: Inhibitory activity against Proteus vulgaris X45 at 10 mg/mL concentration using Agar disk plate assay; assay type: functional
Bacillus subtilis [6] = assay: Inhibitory activity against Bacillus Subtilis X12M at 10 mg/mL concentration using Agar disk plate assay; assay type: functional
Escherichia coli [7] = assay: Inhibitory activity against Escherichia coli X161 at 10 mg/mL concentration using Agar disk plate assay; assay type: functional
Micrococcus luteus [8] = assay: Inhibitory activity against Sarcina lutea X186 at 1 mg/mL concentration using Agar disk plate assay; assay type: functional
Proteus vulgaris [9] = assay: Inhibitory activity against Proteus vulgaris X45 at 1 mg/mL concentration using Agar disk plate assay; assay type: functional
Klebsiella pneumoniae [10] = assay: Minimum inhibitory concentration against Klebsiella pneumoniae X68; assay type: functional
Serratia marcescens [11] = assay: Minimum inhibitory concentration against Serratia marcescens X99; assay type: functional
Escherichia coli [12] = assay: Minimum inhibitory concentration against Escherichia coli TEM; assay type: functional
Enterobacter cloacae [13] = assay: Minimum inhibitory concentration against Enterobacter cloacae 265A; assay type: functional
Citrobacter freundii = assay: Minimum inhibitory concentration against Citrobacter freundii CF17; assay type: functional
Proteus inconstans = assay: Minimum inhibitory concentration against Proteus inconstans PR33; assay type: functional; details: Providencia alcalifaciens
Ralstonia solanacearum [14] = assay: Inhibitory activity against Pseudomonas solanacearum X185 at 10 mg/mL concentration using Agar disk plate assay; assay type: functional
Pseudomonas aeruginosa [15] = assay: Inhibitory activity against Pseudomonas aeruginosa X48 at 10 mg/mL concentration using Agar disk plate assay; assay type: functional
Haemophilus influenzae [16] = assay: Minimum inhibitory concentration against Haemophilus influenza C.L; assay type: functional
Serratia marcescens [17] = assay: Inhibitory activity against Serratia marcescens X99 at 1 mg/mL concentration using Agar disk plate assay; assay type: functional
Enterobacter cloacae [18] = assay: Minimum inhibitory concentration against Enterobacter cloacae EB5; assay type: functional
Klebsiella aerogenes [19] = assay: Minimum inhibitory concentration against Enterobacter aerogenes EB 17; assay type: functional
Escherichia coli [20] = assay: Minimum inhibitory concentration against Escherichia coli EC14; assay type: functional
Klebsiella pneumoniae [21] = assay: Minimum inhibitory concentration against Klebsiella pneumoniae KAE; assay type: functional
Salmonella typhi [22] = assay: Minimum inhibitory concentration against Salmonella typhi X514; assay type: functional, Salmonella enterica subsp. enterica serovar Typhi; details: Salmonella enterica
[23] = test system: Staphylococcus epidermidis; assay: Minimum inhibitory concentration against Staphylococcus epidermidis (2 strains); assay type: functional
Escherichia coli [24] = assay: Inhibitory activity against Escherichia coli X161M at 1 mg/mL concentration using Agar disk plate assay; assay type: functional
Escherichia coli [25] = assay: Minimum inhibitory concentration against Escherichia coli N10; assay type: functional
Klebsiella pneumoniae [26] = assay: Minimum inhibitory concentration against Klebsiella pneumoniae X26; assay type: functional
Ralstonia solanacearum [27] = assay: Inhibitory activity against Pseudomonas solanacearum X185 at 1 mg/mL concentration using Agar disk plate assay; assay type: functional
Escherichia coli [28] = assay: Inhibitory activity against Escherichia coli X580 at 1 mg/mL concentration using Agar disk plate assay; assay type: functional
[29] = test system: Acinetobacter calcoaceticus; assay: Minimum inhibitory concentration against Acinetobacter calcoaceticus AC12; assay type: functional
Salmonella typhi [30] = assay: Minimum inhibitory concentration against Salmonella typhi 1335; assay type: functional, Salmonella enterica subsp. enterica serovar Typhi; details: Salmonella enterica
Streptococcus pneumoniae = assay: Minimum inhibitory concentration against Streptococcus pneumoniae Park I; assay type: functional
Serratia marcescens [31] = assay: Minimum inhibitory concentration against Serratia marcescens SE3; assay type: functional
Klebsiella aerogenes [32] = assay: Minimum inhibitory concentration against Enterobacter aerogenes C32; assay type: functional
Morganella morganii = assay: Minimum inhibitory concentration against Proteus morganii PR15; assay type: functional
Bacillus subtilis [33] = assay: Inhibitory activity against Bacillus Subtilis X12 at 1 mg/mL concentration using Agar disk plate assay; assay type: functional
Escherichia coli [34] = assay: Inhibitory activity against Escherichia coli X161 at 1 mg/mL concentration using Agar disk plate assay; assay type: functional
Bacillus subtilis [35] = assay: Inhibitory activity against Bacillus Subtilis X12M at 1 mg/mL concentration using Agar disk plate assay; assay type: functional
Haemophilus influenzae [36] = assay: Minimum inhibitory concentration against Haemophilus influenza 76; assay type: functional
[37] = test system: Salmonella enterica subsp. enterica serovar Gallinarum; assay: Inhibitory activity against Salmonella gallinarum X142 at 1 mg/mL concentration using Agar disk plate assay; assay type: functional
Streptococcus pyogenes = assay: Minimum inhibitory concentration against Streptococcus pyogenes C203; assay type: functional
Streptococcus = assay: Minimum inhibitory concentration against Streptococcus sp. Group D (2 strains); assay type: functional
[38] = test system: Geobacillus stearothermophilus; assay: Inhibitory activity against Bacillus Stearothermophilus C451 at 10 mg/mL concentration using Agar disk plate assay; assay type: functional
[39] = test system: Geobacillus stearothermophilus; assay: Inhibitory activity against Bacillus Stearothermophilus C451 at 1 mg/mL concentration using Agar disk plate assay; assay type: functional
Escherichia coli [40] = assay: Inhibitory activity against Escherichia coli X161M at 10 mg/mL concentration using Agar disk plate assay; assay type: functional
Staphylococcus aureus [41] = assay: Minimum inhibitory concentration against Staphylococcus aureus (4 strains); assay type: functional
Serratia marcescens [42] = assay: Inhibitory activity against Serratia marcescens X99 at 10 mg/mL concentration using Agar disk plate assay; assay type: functional
Providencia rettgeri = assay: Minimum inhibitory concentration against Proteus rettgeri C24; assay type: functional
Pseudomonas aeruginosa [43] = assay: Minimum inhibitory concentration against Pseudomonas aeruginosa (4 strains); assay type: functional
[44] = test system: Salmonella enterica subsp. enterica serovar Gallinarum; assay: Inhibitory activity against Salmonella gallinarum X142 at 10 mg/mL concentration using Agar disk plate assay; assay type: functional

C[C@H]1[C@H](NC(=O)Cc2ccccc2)C(=O)N1OCC(=O)O
Zone of inhibition (Escherichia coli [1]): 26 mm
Zone of inhibition (Micrococcus luteus [2]): 23 mm
Zone of inhibition (Bacillus subtilis [3]): 11 mm
Zone of inhibition (Staphylococcus aureus [4]): 13 mm
Zone of inhibition (Proteus vulgaris [5]): 10 mm
Zone of inhibition (Bacillus subtilis [6]): 18 mm

CO/N=C(/C(=O)N[C@@H]1C(=O)N(S(=O)(=O)[O-])[C@H]1C)c1csc(N)n1.[K+]
Zone of inhibition (Escherichia coli [7]): 40 mm
Zone of inhibition (Micrococcus luteus [8]): 25 mm
Zone of inhibition (Proteus vulgaris [9]): 40 mm
MIC (Klebsiella pneumoniae [10]): 0.125 µg/mL
MIC (Serratia marcescens [11]): 0.25 µg/mL
MIC (Escherichia coli [12]): 0.125 µg/mL
MIC (Enterobacter cloacae [13]): > 64 µg/mL
MIC (Citrobacter freundii): 0.25 µg/mL
Zone of inhibition (Escherichia coli [1]): 66 mm
MIC (Proteus inconstans): 0.03 µg/mL
Zone of inhibition (Ralstonia solanacearum [14]): 40 mm
Zone of inhibition (Pseudomonas aeruginosa [15]): 25 mm
MIC (Haemophilus influenzae [16]): 0.5 µg/mL
Zone of inhibition (Serratia marcescens [17]): 33 mm
MIC (Enterobacter cloacae [18]): 0.125 µg/mL
MIC (Klebsiella aerogenes [19]): 0.125 µg/mL
MIC (Escherichia coli [20]): 0.06 µg/mL
MIC (Klebsiella pneumoniae [21]): > 64 µg/mL
MIC (Salmonella typhi [22]): 0.06 µg/mL
MIC [23]: > 64 µg/mL
Zone of inhibition (Escherichia coli [24]): 40 mm
MIC (Escherichia coli [25]): 0.125 µg/mL
MIC (Klebsiella pneumoniae [26]): 0.06 µg/mL
Zone of inhibition (Ralstonia solanacearum [27]): 29 mm
Zone of inhibition (Escherichia coli [28]): 54 mm
MIC [29]: 4 µg/mL
Zone of inhibition (Micrococcus luteus [2]): 27 mm
MIC (Salmonella typhi [30]): 0.125 µg/mL
MIC (Streptococcus pneumoniae): 4 µg/mL
MIC (Serratia marcescens [31]): 0.25 µg/mL
MIC (Klebsiella aerogenes [32]): 0.125 µg/mL
Zone of inhibition (Bacillus subtilis [3]): 23 mm
MIC (Morganella morganii): 0.25 µg/mL
Zone of inhibition (Bacillus subtilis [33]): 15 mm
Zone of inhibition (Escherichia coli [34]): 40 mm
Zone of inhibition (Bacillus subtilis [35]): 16 mm
MIC (Haemophilus influenzae [36]): 0.25 µg/mL
Zone of inhibition [37]: 48 mm
MIC (Streptococcus pyogenes): 4 µg/mL
MIC (Streptococcus): > 64 µg/mL
Zone of inhibition [38]: 30 mm
Zone of inhibition [39]: 25 mm
Zone of inhibition (Escherichia coli [40]): 54 mm
Zone of inhibition (Staphylococcus aureus [4]): 22 mm
MIC (Staphylococcus aureus [41]): > 64 µg/mL
Zone of inhibition (Proteus vulgaris [5]): 46 mm
Zone of inhibition (Serratia marcescens [42]): 40 mm
MIC (Providencia rettgeri): 0.03 µg/mL
MIC (Pseudomonas aeruginosa [43]): > 64 µg/mL
Zone of inhibition [44]: 36 mm
Zone of inhibition (Bacillus subtilis [6]): 30 mm
